We go through 47 molecules from the SangsterLogP compilation.

This series is described as follows: method code SF-AS, from DOI: 10.1016/0009-2797(77)90026-6.
For `CC1CCCN(N=O)C1` (configuration not stated), the logP (in general, a log measure of how a compound divides between an organic and an aqueous phase) is 0.99.

On to `CC1CN(C(=O)c2ccccc2)CC(C)N1N=O` (configuration not stated), for which the logP amounted to 1.04.

`CC1CCCC(C)N1N=O` (configuration not stated): the logP is 1.36.

`N#CCCN(CCC#N)N=O` registered a log partition coefficient (logP) of 0.08.

`CC1C(C)N(N=O)C(C)C(C)N1N=O` (configuration not stated) gave a logP of 0.91.

In the case of `O=NN1CCC(Cl)C(Cl)C1` (configuration not stated), the logP came to 1.04.

In the case of `O=NN1CC=CCC1`, the log partition coefficient (logP) worked out at 1.18.

For `CC1CC(C)CN(N=O)C1` (configuration not stated), the logP came to 1.53.

Molecule `O=NN1CCC(c2ccccc2)CC1` came in with a lipophilicity (logP) of 2.59.

In turn, `CC1CN(N=O)CC(C)N1C(=O)c1ccccc1` (configuration not stated) returned a lipophilicity (logP) of 1.41.

For `O=NN(CC(F)(F)F)CC(F)(F)F`, the logP amounted to 2.15.

Consider `CCN(CC)C(=O)N(CC)N=O`, for which the log partition coefficient (logP) came to 1.54.

`CC1CCN(N=O)CC1` yielded a logP of 1.05.

In turn, `CC1CCC(C)N1N=O` (configuration not stated) had a logP of 0.86.

With `CCN(N=O)C(=O)N(C)C`, the lipophilicity (logP) came to 0.71.

`CN1CCN(N=O)CC1` gave a lipophilicity (logP) of 0.2.

In turn, `CC1CN(N=O)CC(C)N1` (configuration not stated) registered a logP of 0.73.

With `CC1CCCCN1N=O` (configuration not stated), the lipophilicity (logP) amounted to 0.71.

Regarding `O=NN1CCSCC1`, the logP is 0.4.

Take `O=NN1CCCCCC1`: the logP worked out at 0.92.

The molecule `O=NN1CCCCCCCC1` showed a lipophilicity (logP) of 2.04.

On to `CC1(C)CCCC(C)(C)N1N=O`, for which the logP came out at 2.49.

Consider `CN(CC(C)(C)C)N=O`, for which the lipophilicity (logP) worked out at 1.34.

As for `O=NN1CCCC1`, the logP was -0.19.

As to `N#CCN(CC#N)N=O`, the log partition coefficient (logP) amounted to 0.04.

Molecule `COCCN(CCOC)N=O` registered a logP of -0.38.

On to `CC(C)(C)C1CCN(N=O)CC1`, for which the logP turned out to be 2.54.

Turning to `O=NN1CCCC(O)C1` (configuration not stated), the logP is -0.47.

`CN(C)C(=O)N(C)N=O` displayed a logP of 0.36.

Regarding `CCCCCCCCCCCCN(C)N=O`, the logP is 2.18.

As for `O=NN1CCC(O)CC1`, the log partition coefficient (logP) is -0.89.

`O=NN1CCCCCCC1` gave a log partition coefficient (logP) of 1.48.

Molecule `CC1CN(N=O)CC(C)O1` (configuration not stated) displayed a logP of 0.32.

As to `O=NN1CCN(N=O)CC1`, the logP is -0.85.

Molecule `CC1CN(N=O)C(C)CN1N=O` (configuration not stated) yielded a log partition coefficient (logP) of 0.15.

`CN(N=O)C1CCCCC1` displayed a logP of 1.43.

In the case of `CC1CN(N=O)CC(C)N1N=O` (configuration not stated), the log partition coefficient (logP) came to 0.08.

`O=NN1CCCCC1` had a log partition coefficient (logP) of 0.63.

In turn, `O=NN1CC=CC1` showed a logP of 0.26.

`O=NN1CCCN(N=O)CC1` registered a logP of -0.51.

With `O=NN1CCNCC1`, the log partition coefficient (logP) was 0.18.

Consider `CC1C(c2ccccc2)OCCN1N=O` (configuration not stated), for which the lipophilicity (logP) was 2.09.

In turn, `O=NN1CCC(=O)CC1` had a logP of -0.47.

`CC1CN(N=O)CCN1N=O` (configuration not stated) had a lipophilicity (logP) of -0.28.

The molecule `CCN(CC)C(=O)N(C)N=O` gave a lipophilicity (logP) of 1.11.

Molecule `CCOCCN(CCOCC)N=O` displayed a log partition coefficient (logP) of 0.79.

`O=NN1CCC(Br)C(Br)C1` (configuration not stated) returned a logP of 1.23.
